Laboratory results reported in patent US8598202B2, “Aryl-hydroxyethylamino-pyrimidines and triazines as modulators of fatty acid amide hydrolase” (Janssen Pharmaceutica NV, priority 2008, dated 2013).
Counter-ions that a name gives are not always drawn. Like-named read-outs stand apart in the source and are kept apart here.

Assays:
Rat FAAH-1 = target: T1, Rat FAAH-1 (Rattus norvegicus, UniProt P97612); test: Assay Method 2: rat FAAH-1 assay, 3H-anandamide hydrolysis in homogenate of SK-N-MC cells transfected with rat FAAH
T1 sequence (P97612 1-579): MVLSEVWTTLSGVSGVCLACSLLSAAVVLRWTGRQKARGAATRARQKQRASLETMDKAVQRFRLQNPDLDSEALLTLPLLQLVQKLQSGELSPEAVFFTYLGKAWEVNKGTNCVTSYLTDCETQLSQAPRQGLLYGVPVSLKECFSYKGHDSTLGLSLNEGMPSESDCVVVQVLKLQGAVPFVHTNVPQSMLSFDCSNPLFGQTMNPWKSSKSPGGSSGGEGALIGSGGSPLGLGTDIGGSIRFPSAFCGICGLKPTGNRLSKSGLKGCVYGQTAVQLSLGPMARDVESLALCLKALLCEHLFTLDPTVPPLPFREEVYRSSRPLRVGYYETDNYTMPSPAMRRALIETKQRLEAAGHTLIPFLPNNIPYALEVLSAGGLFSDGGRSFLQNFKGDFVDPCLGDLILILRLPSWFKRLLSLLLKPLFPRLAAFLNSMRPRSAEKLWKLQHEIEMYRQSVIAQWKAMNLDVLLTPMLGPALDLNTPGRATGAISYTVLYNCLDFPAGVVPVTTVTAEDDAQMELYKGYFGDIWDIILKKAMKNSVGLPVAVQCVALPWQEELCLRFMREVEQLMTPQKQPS
Experimental: The assay mixture consisted of 50 μL of the cell homogenate, 10 μL of the test compound, and 40 μL of anandamide [1-^3H-ethanolamine] (^3H-AEA, Perkin-Elmer, 10.3 Ci/mmol), which was added last, for a final tracer concentration of 80 nM. The reaction mixture was incubated at rt for 1 h. During the incubation, 96-well Multiscreen filter plates (catalog number MAFCNOB50; Millipore, Bedford, Mass., USA) were loaded with 25 μL of activated charcoal (Multiscreen column loader, catalog number MACL09625, Millipore) and washed once with 100 μL of MeOH. […] After the 1 h incubation, 60 μL of the reaction mixture were transferred to the charcoal plates, which were then assembled on top of the DYNEX plates using Centrifuge Alignment Frames (catalog number MACF09604, Millipore). The unbound labeled ethanolamine was centrifuged through to the bottom plate (5 min at 2000 rpm), which was preloaded with the scintillant, as described above. The plates were sealed and left at rt for 1 h before counting on a Hewlett Packard TopCount.

FAAH = target: T2, FAAH (Homo sapiens, UniProt O00519); test: Assay Method 1: FAAH assay, 3H-anandamide hydrolysis in homogenate of T84 cells or SK-N-MC cells transfected with human FAAH
T2 sequence (O00519 1-579): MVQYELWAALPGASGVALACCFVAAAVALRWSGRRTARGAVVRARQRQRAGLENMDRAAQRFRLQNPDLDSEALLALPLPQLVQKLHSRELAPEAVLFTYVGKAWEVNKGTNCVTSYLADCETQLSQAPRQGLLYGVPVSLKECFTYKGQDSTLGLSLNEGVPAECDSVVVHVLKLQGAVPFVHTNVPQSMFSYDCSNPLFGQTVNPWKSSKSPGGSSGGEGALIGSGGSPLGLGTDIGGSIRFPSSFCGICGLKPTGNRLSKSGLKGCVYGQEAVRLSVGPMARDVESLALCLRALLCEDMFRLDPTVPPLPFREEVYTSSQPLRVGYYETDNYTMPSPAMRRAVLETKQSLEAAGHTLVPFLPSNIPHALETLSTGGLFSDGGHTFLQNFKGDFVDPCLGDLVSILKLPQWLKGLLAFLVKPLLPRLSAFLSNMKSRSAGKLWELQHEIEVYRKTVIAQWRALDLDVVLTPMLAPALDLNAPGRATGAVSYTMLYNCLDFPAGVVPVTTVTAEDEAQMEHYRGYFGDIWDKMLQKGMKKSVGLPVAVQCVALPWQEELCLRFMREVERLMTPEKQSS

[1] = read-out: Assay 2 IC50, Table 2, Comparative Examples, rat FAAH-1
[2] = read-out: Assay 1 IC50, Table 2, Comparative Examples, human FAAH

Row | Compound | IC50 (Rat FAAH-1) | IC50 (FAAH) | IC50 (Rat FAAH-1; [1]) | IC50 (FAAH; [2])
1 | CSc1cccc(-c2cc(NC[C@H](O)c3ccccc3)ncn2)c1 [Example 84, (1R)-2-({6-[3-(Methylsulfanyl)phenyl]pyrimidin-4-yl}amino)-1-phenylethanol trifluoroacetic acid salt] | 965 nM | 44 nM | – | –
2 | O[C@@H](CNc1cc(-c2cc(F)c(OC(F)F)c(F)c2)ncn1)c1ccccc1 [Example 49, (1R)-2-({6-[4-(Difluoromethoxy)-3,5-difluorophenyl]pyrimidin-4-yl}amino)-1-phenylethanol trifluoroacetic acid salt] | 9 nM | 2 nM | – | –
3 | OC(CNc1cc(-c2ccc(C(F)(F)F)c(Cl)c2)ncn1)c1ccc(N2CCCC2)cc1 (stereo not drawn) [Example 208, 2-({6-[3-Chloro-4-(trifluoromethyl)phenyl]pyrimidin-4-yl}amino)-1-(4-pyrrolidin-1-ylphenyl)ethanol] | 500 nM | 28 nM | – | –
4 | OC(CNc1cc(-c2ccc(OC(F)(F)F)cc2)ncn1)c1ccc(Cl)cc1 (stereo not drawn) [Example 109, 1-(4-Chlorophenyl)-2-[(6-{4-[(trifluoromethyl)oxy]phenyl}pyrimidin-4-yl)amino]ethanol] | 42 nM | 150 nM | – | –
5 | CC(C)Oc1ccc(-c2cc(NC[C@H](O)c3ccccc3)ncn2)cc1Cl [Example 19, (1R)-2-[(6-{3-Chloro-4-[(1-methylethyl)oxy]phenyl}pyrimidin-4-yl)amino]-1-phenylethanol] | 12 nM | 20 nM | – | –
6 | CC(=O)c1ccc(-c2cc(NCC(O)c3ccccc3)ncn2)s1 (stereo not drawn) [Example 236, 1-{5-[6-(2-Hydroxy-2-phenyl-ethylamino)-pyrimidin-4-yl]-thiophen-2-yl}-ethanone] | 4000 nM | 700 nM | – | –
7 | OC(CNc1cc(-c2ccc(C(F)(F)F)c(Cl)c2)ncn1)c1c(F)cccc1F (stereo not drawn) [Example 211, 2-({6-[3-Chloro-4-(trifluoromethyl)phenyl]pyrimidin-4-yl}amino)-1-(2,6-difluorophenyl)ethanol] | 50 nM | 56 nM | – | –
8 | O[C@@H](CNc1cc(-c2cc3cc(F)ccc3s2)ncn1)c1ccccc1 [Example 187, (1R)-2-{[6-(5-Fluoro-1-benzothiophen-2-yl)pyrimidin-4-yl}amino]-1-Phenylethanol] | 400 nM | 20 nM | – | –
9 | O[C@@H](CNc1cc(-c2cnc(N3CCOCC3)nc2)ncn1)c1ccccc1 [Example 69, (1R)-2-[(2′-Morpholin-4-yl-4,5′-bipyrimidin-6-yl)amino]-1-phenylethanol] | > 10000 nM | 900 nM | – | –
10 | O[C@H](CNc1cc(-c2ccc(C(F)(F)F)c(Cl)c2)ncn1)c1ccc(Cl)c(F)c1 [Example 145, (1S)-1-(4-Chloro-3-fluoro-phenyl)-2-[6-(3-chloro-4-trifluoromethyl-phenyl)-pyrimidin-4-ylamino]-ethanol] | 2000 nM | 7000 nM | – | –
11 | OC(CNc1cc(-c2ccsc2)ncn1)c1ccccc1 (stereo not drawn) [CE7, 1-Phenyl-2-(6-thiophen-3-yl-pyrimidin-4-ylamino)-ethanol, reference compound] | – | – | > 10000 nM | > 10000 nM
12 | CC(=O)c1ccc(-c2cc(NC[C@H](O)c3ccccc3)ncn2)cc1 [Example 17, 1-[4-(6-{[(2R)-2-Hydroxy-2-phenylethyl]amino}pyrimidin-4-yl)phenyl]ethanone] | 10 nM | 12 nM | – | –
13 | C[C@H](Nc1cc(-c2ccc(C(F)(F)F)c(Cl)c2)ncn1)[C@H](O)c1ccccc1 [Example 179] | 40 nM | 9 nM | – | –
14 | O[C@@H](CNc1cc(-c2ccc(C(F)(F)F)cc2C(F)(F)F)ncn1)c1ccccc1 [Example 152, (1R)-2-({6-[2,4-Bis(trifluoromethyl)phenyl]pyrimidin-4-yl}amino)-1-phenylethanol trifluoroacetic acid salt] | > 10000 nM | 4000 nM | – | –
15 | OC(CNc1cc(-c2cccs2)ncn1)c1ccccc1 (stereo not drawn) [CE5, 1-Phenyl-2-(6-thiophen-2-yl-pyrimidin-4-ylamino)-ethanol, reference compound] | – | – | > 10000 nM | > 10000 nM
16 | O=[N+]([O-])c1ccc(-c2cc(NCC(O)c3ccccc3)ncn2)cc1 (stereo not drawn) [Example 5, 2-{[6-(4-Nitrophenyl)pyrimidin-4-yl]amino}-1-phenylethanol trifluoroacetic acid salt] | 153 nM | 132 nM | – | –
17 | COc1ccc(-c2cc(NC[C@H](O)c3ccccc3)ncn2)cc1F [Example 71, (1R)-2-{[6-(3-Fluoro-4-methoxyphenyl)pyrimidin-4-yl]amino}-1-pPhenylethanol] | 76 nM | 14 nM | – | –
18 | Cc1n[nH]c2cc(-c3cc(NC[C@H](O)c4ccccc4)ncn3)ccc12 [Example 140, (1R)-2-{[6-(3-Methyl-1H-indazol-6-yl)pyrimidin-4-yl]amino}-1-phenylethanol trifluoroacetic acid salt] | 265 nM | 127 nM | – | –
19 | NS(=O)(=O)c1ccc(-c2cc(NC[C@H](O)c3ccccc3)ncn2)cc1 [Example 81, 4-(6-{[(2R)-2-Hydroxy-2-phenylethyl]amino}pyrimidin-4-yl)benzenesulfonamide] | 492 nM | 110 nM | – | –
20 | CSc1ccc(-c2cc(NCC(O)c3ccccc3)ncn2)cc1 (stereo not drawn) [Example 225, 2-[6-(4-Methylsulfanyl-phenyl)-Pyrimidin-4-ylamino]-1-phenyl-ethanol] | 128 nM | 11 nM | – | –
21 | OC(CNc1cc(-c2ccc(C(F)(F)F)c(Cl)c2)ncn1)c1ccccc1F (stereo not drawn) [Example 212, 2-({6-[3-Chloro-4-(trifluoromethyl)phenyl]pyrimidin-4-yl}amino)-1-(2-fluorophenyl)ethanol] | 39 nM | 65 nM | – | –
22 | OC(CNc1cc(-c2ccc(C(F)(F)F)c(Cl)c2)ncn1)c1cc(-c2ccc(Cl)cc2)no1 (stereo not drawn) [Example 214, 1-[3-(4-Chloro-phenyl)-isoxazol-5-yl]-2-[6-(3-chloro-4-trifluoromethyl-Phenyl)-pyrimidin-4-ylamino]-ethanol] | 160 nM | 36 nM | – | –
23 | OC(CNc1cc(-c2ccc(C(F)(F)F)c(Cl)c2)ncn1)c1ccc(-c2ccccn2)s1 (stereo not drawn) [Example 209, 2-({6-[3-Chloro-4-(trifluoromethyl)phenyl]pyrimidin-4-yl}amino)-1-(5-pyridin-2-ylthiophen-2-yl)ethanol] | 36 nM | 12 nM | – | –
24 | Cc1ccc(-c2cc(NC[C@H](O)c3ccccc3)ncn2)cc1F [Example 20, (1R)-2-{[6-(3-Fluoro-4-methylphenyl)pyrimidin-4-yl]amino}-1-phenylethanol trifluoroacetic acid salt] | 181 nM | 32 nM | – | –
25 | CC(=O)Nc1cccc(-c2cc(NCC(O)c3ccccc3)ncn2)c1 (stereo not drawn) [Example 242, N-{3-[6-(2-Hydroxy-2-phenyl-ethylamino)-pyrimidin-4-yl]-phenyl}-acetamide] | > 10000 nM | > 10000 nM | – | –
26 | CN(C)c1ccc(-c2cc(NC[C@H](O)c3ccccc3)ncn2)cn1 [Example 78, (1R)-2-({6-[6-(Dimethylamino)pyridin-3-yl]pyrimidin-4-yl}amino)-1-phenylethanol] | > 10000 nM | 633 nM | – | –
27 | CC(C)Oc1ccc(-c2cc(NCC(O)c3ccccc3)ncn2)cc1 (stereo not drawn) [Example 12, 2-[(6-{4-[(1-Methylethyl)oxy]phenyl}pyrimidin-4-yl)amino]-1-phenylethanol] | 382 nM | 186 nM | – | –
28 | OC(CNc1cc(-c2ccc(C(F)(F)F)c(Cl)c2)ncn1)c1cccc(OC(F)(F)F)c1 (stereo not drawn) [Example 130, 2-({6-[3-Chloro-4-(trifluoromethyl)phenyl]pyrimidin-4-yl}amino)-1-[3-(trifluoromethoxy)phenyl]ethanol trifluoroacetic acid salt] | 15 nM | 120 nM | – | –
29 | COc1ccc(-c2cc(NC[C@H](O)c3ccccc3)ncn2)cn1 [Example 63, (1R)-2-{[6-(6-Methoxypyridin-3-yl)pyrimidin-4-yl]amino}-1-phenylethanol] | 2000 nM | 450 nM | – | –
30 | Cc1ccc(-c2cc(NC[C@H](O)c3ccccc3)ncn2)cc1Cl [Example 39, (1R)-2-{[6-(3-Chloro-4-methylphenyl)pyrimidin-4-yl]amino}-1-phenylethanol trifluoroacetic acid salt] | 60 nM | 18 nM | – | –
